This is an account of results in the supplement of paper PMC11208160.
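Also: IS621 recombinase and bridge RNA in Escherichia coli cells.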

The series in a line: recombinant barcode read abundance after kanamycin selection (control-corrected) (log10(CPM+1)); higher = more efficient recombination; sequences stand for … in AGTGCAGAGAAAATCGGCCAGTTTTCTCTGCCTGCAGTCCGCATGCCGT…AGATTTATGCAGCGGACTGCCTTTCTCCCAAAGTGATAAACCGGACAGTATCATGGACCGGTTTTCCCGGTAATCCGTATTTGCAAGGTTGGTTTCACT; site = the 11-nt target. The method in brief: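 This pooled E. coli screen matched targets with IS621 bridge RNA target-binding loops. Plating was done in duplicate on chloramphenicol/ampicillin LB agar as a control and on chloramphenicol/ampicillin/kanamycin plus 0.1 mM IPTG. Recombination efficiency reflects barcode counts at recombinant junctions as counts per million, averaged and control-corrected. The figures are log10(CPM+1).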
Consider “GCAAGGTCTTGGGTTCTAACCTGTTGCTA (site GCAAGGTCTTA)”, for which the “recombinant barcode read abundance (log10)” value was found to be 1.98.

As to “GCAAGTCCTTGGGTTCTAACCTGTTGCGT (site CATGCCTCTCG)”, the “recombinant barcode read abundance (log10)” value was determined as 0.0651.

Regarding “GCAAGTCCTTGGGTTCTAACCTGTTGCGT (site GCAAGTCCTAC)”, the “recombinant barcode read abundance (log10)” value is 2.47.

In the case of “GCAAGTTCTTGGGTTCTAACCTGTTGCCT (site GAAAGTTCTAG)”, the “recombinant barcode read abundance (log10)” value came out at 0.113. Take “GCAAGTTCTTGGGTTCTAACCTGTTGCCT (site GCAAGTTCTAG)”: the “recombinant barcode read abundance (log10)” value turned out to be 1.33. For “GCAAGTTCTTGGGTTCTAACCTGTTGCCT (site GGAAGTTCTAG)”, the “recombinant barcode read abundance (log10)” value came out at 0.172. Take “GCAAGTTCTTGGGTTCTAACCTGTTGCCT (site GTAAGTTCTAG)”: the “recombinant barcode read abundance (log10)” value came to 0.229. In the case of “GCAATATCTTGGGTTCTAACCTGTTGCCT (site AAGTCTCCTCT)”, the “recombinant barcode read abundance (log10)” value amounted to 0.0108. Regarding “GCAATATCTTGGGTTCTAACCTGTTGCCT (site GCAATATCTAG)”, the “recombinant barcode read abundance (log10)” value was 1.26. Consider “GCACAACCTTGGGTTCTAACCTGTTGCCT (site GCACAACCTAG)”, for which the “recombinant barcode read abundance (log10)” value came out at 1.89. For the sequence “GCACAACCTTGGGTTCTAACCTGTTGCCT (site GCACCACCTAG)”, the “recombinant barcode read abundance (log10)” value is 0.0258.

On to “GCACAACCTTGGGTTCTAACCTGTTGCCT (site GCACGACCTAG)”, for which the “recombinant barcode read abundance (log10)” value was 0.214. Take “GCACAACCTTGGGTTCTAACCTGTTGCCT (site GCACTACCTAG)”: the “recombinant barcode read abundance (log10)” value amounted to 0.0085. The figure for “GCACACACTTGGGTTCTAACCTGTTGCTG (site GAACACACTCG)” is 0; for “GCACACACTTGGGTTCTAACCTGTTGCTG (site GCACACACTCA)” it is 2.5. For the sequence “GCACACTCTTGGGTTCTAACCTGTTGCCT (site GCACACTCTAG)”, the “recombinant barcode read abundance (log10)” value was 2.43. On to “GCACACTCTTGGGTTCTAACCTGTTGCCT (site GCACCCTCTAG)”, for which the “recombinant barcode read abundance (log10)” value was found to be 0.128. For “GCACACTCTTGGGTTCTAACCTGTTGCCT (site GCACGCTCTAG)”, the “recombinant barcode read abundance (log10)” value is 0.

As for “GCACACTCTTGGGTTCTAACCTGTTGCCT (site GCACTCTCTAG)”, the “recombinant barcode read abundance (log10)” value was found to be 0.261. As for “GCACATTCTTGGGTTCTAACCTGTTGCCT (site GCACATACTAG)”, the “recombinant barcode read abundance (log10)” value is 0.0258. For the sequence “GCACATTCTTGGGTTCTAACCTGTTGCCT (site GCACATTCTAG)”, the “recombinant barcode read abundance (log10)” value was determined as 1.17. In the case of “GCACCCTCTTGGGTTCTAACCTGTTGCCT (site GCACACTCTAG)”, the “recombinant barcode read abundance (log10)” value was 0.0655. With “GCACCCTCTTGGGTTCTAACCTGTTGCCT (site GCACCCTCTAG)”, the “recombinant barcode read abundance (log10)” value is 2.67. Consider “GCACCCTCTTGGGTTCTAACCTGTTGCCT (site GCACGCTCTAG)”, for which the “recombinant barcode read abundance (log10)” value worked out at 0.0715.

Take “GCACCCTCTTGGGTTCTAACCTGTTGCCT (site GCACTCTCTAG)”: the “recombinant barcode read abundance (log10)” value worked out at 0.0191. The figure for “GCACGTGCTTGGGTTCTAACCTGTTGCCT (site GCACGTGCTAG)” is 0.624; for “GCACGTGCTTGGGTTCTAACCTGTTGCCT (site GCCCGTGCTAG)” it is 0.141. Turning to “GCACGTGCTTGGGTTCTAACCTGTTGCCT (site GCGCGTGCTAG)”, the “recombinant barcode read abundance (log10)” value stood at 0.0268. The figure for “GCACGTGCTTGGGTTCTAACCTGTTGCCT (site GCTCGTGCTAG)” is 0.0446; for “GCACTAGCTTGGGTTCTAACCTGTTGCGT (site GCACTAACTAG)” it is 0.17; for “GCACTAGCTTGGGTTCTAACCTGTTGCGT (site GCACTAGCTAC)” it is 2.54. The figure for “GCAGCCTCTTGGGTTCTAACCTGTTGCGT (site ATGTGAACTCA)” is 0.00651; for “GCAGCCTCTTGGGTTCTAACCTGTTGCGT (site GCAGCCTCTAC)” it is 2.08. Regarding “GCAGCTACTTGGGTTCTAACCTGTTGCTG (site ACAGCTACTAA)”, the “recombinant barcode read abundance (log10)” value was found to be 0.0295. For the sequence “GCAGCTACTTGGGTTCTAACCTGTTGCTG (site GCAGCTACTCA)”, the “recombinant barcode read abundance (log10)” value came to 0.694. With “GCATCCTCTTGGGTTCTAACCTGTTGCCA (site AGGAGTACTAA)”, the “recombinant barcode read abundance (log10)” value worked out at 0.146. Take “GCATCCTCTTGGGTTCTAACCTGTTGCCA (site GCATCCTCTTG)”: the “recombinant barcode read abundance (log10)” value was 0.584. On to “GCATGTCCTTGGGTTCTAACCTGTTGCAT (site GAATGTCCTAT)”, for which the “recombinant barcode read abundance (log10)” value came to 0.128. For “GCATGTCCTTGGGTTCTAACCTGTTGCAT (site GCATGTCCTAT)”, the “recombinant barcode read abundance (log10)” value was 1.37. Regarding “GCCAAACCTTGGGTTCTAACCTGTTGCCT (site GCCAAACCTAG)”, the “recombinant barcode read abundance (log10)” value came to 0.0479. On to “GCCAAACCTTGGGTTCTAACCTGTTGCCT (site GCCACACCTAG)”, for which the “recombinant barcode read abundance (log10)” value stood at 0.0741.

For the sequence “GCCAAACCTTGGGTTCTAACCTGTTGCCT (site GCCAGACCTAG)”, the “recombinant barcode read abundance (log10)” value is 0.458. As for “GCCAAACCTTGGGTTCTAACCTGTTGCCT (site GCCATACCTAG)”, the “recombinant barcode read abundance (log10)” value is 0.184. Consider “GCCAACCCTTGGGTTCTAACCTGTTGCGT (site GCCAACCCTAA)”, for which the “recombinant barcode read abundance (log10)” value came out at 0.212. The figure for “GCCAACCCTTGGGTTCTAACCTGTTGCGT (site GCCAACCCTAC)” is 0.276; for “GCCAACCCTTGGGTTCTAACCTGTTGCGT (site GCCAACCCTAG)” it is 0.149; for “GCCAACCCTTGGGTTCTAACCTGTTGCGT (site GCCAACCCTAT)” it is 0.162. As to “GCCACTCCTTGGGTTCTAACCTGTTGCGT (site GCCACTCCTAC)”, the “recombinant barcode read abundance (log10)” value turned out to be 0.297. Then “GCCACTCCTTGGGTTCTAACCTGTTGCGT (site GTCAATCCTAC)”, with 0.185; and “GCCATTACTTGGGTTCTAACCTGTTGCCT (site GCCATAACTAG)”, with 0.0468.

As for “GCCATTACTTGGGTTCTAACCTGTTGCCT (site GCCATCACTAG)”, the “recombinant barcode read abundance (log10)” value is 0.0409. Regarding “GCCATTACTTGGGTTCTAACCTGTTGCCT (site GCCATGACTAG)”, the “recombinant barcode read abundance (log10)” value is 0.297.

As to “GCCATTACTTGGGTTCTAACCTGTTGCCT (site GCCATTACTAG)”, the “recombinant barcode read abundance (log10)” value was found to be 0.0923. Regarding “GCCATTCCTTGGGTTCTAACCTGTTGCAT (site AGAGCCACTTA)”, the “recombinant barcode read abundance (log10)” value was 0.0467.

Turning to “GCCATTCCTTGGGTTCTAACCTGTTGCAT (site GCCATTCCTAT)”, the “recombinant barcode read abundance (log10)” value came to 0.347.

In the case of “GCCCATGCTTGGGTTCTAACCTGTTGCGG (site CATTTCACTAG)”, the “recombinant barcode read abundance (log10)” value is 0.144. Then “GCCCATGCTTGGGTTCTAACCTGTTGCGG (site GCCCATGCTCC)”, with 2.05; and “GCCGACCCTTGGGTTCTAACCTGTTGCCG (site GCCGACCCTCG)”, with 0.492. Then “GCCGACCCTTGGGTTCTAACCTGTTGCCG (site GCCTACCCTCC)”, with 0.0507.
